Drawing on PubChem BioAssay (NCI), this text covers GI50 and TGI for nine compounds.

What all share (experiment): DTP human tumour cell line panel, 48 h
Assay [1] relates to PC-3 prostate.
Assay [2] relates to EKVX NSCLC.
The subject of assay [3] is NCI-H460 lung.
Assay [4] concerns HOP-62 NSCLC.
For assay [5], the system named is MOLT-4 leukemia.
The subject of assay [6] is NCI/ADR-RES ovarian.
The test system of assay [7] is NCI-H23 lung.
Assay [8] relates to UACC-257 melanoma.

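These data come from cells grown in 96-well plates and exposed to compound for 48 hours at five concentrations. GI50 marks 50% less growth. At the TGI there is no net growth.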

In general, GI50 refers to the concentration that inhibits growth by half. A word on the TGI: it is the concentration at which net growth stops. A high value points to less potent growth arrest. `COc1ccc(-c2ccc(/C=N/n3c(C)nn(CN4CCN(C)CC4)c3=S)o2)c([N+](=O)[O-])c1`: the GI50 is 24.9 µM in assay [1]; greater than 100 µM in assay [2]; 29.3 µM in assay [3]; 32.9 µM in assay [4]; 20.5 µM in assay [5]; 21.6 µM in assay [6]. Besides, the GI50 in assay [7] was 26.1 µM. Also, the TGI in assay [1] is 92 µM; in assay [2], greater than 100 µM; in assay [3], greater than 100 µM; in assay [4], greater than 100 µM; in assay [5], 61.3 µM; in assay [6], 50.5 µM. Moreover, in assay [7], the TGI was 92.5 µM.
Consider `CC/C(C)=C1\OC(=O)C(C)C(O)C(Cc2cccnc2)NC(=O)C(NC(=O)c2ncccc2O)C(C)OC1=O` (centres undefined), for which the TGI in assay [1], in assay [2], in assay [3], in assay [4], in assay [5] and in assay [8] was greater than 100 µM in each case. Moreover, the TGI in assay [7] was greater than 100 µM.
As for `Nc1nnc(Cn2c(-c3ccccc3)nc3ccc(Br)cc3c2=O)s1`, the GI50 in assay [1] was 38.2 µM; in assay [2], greater than 100 µM; in assay [3], greater than 100 µM; in assay [4], 36.8 µM; in assay [5] it was 17.7 µM; in assay [6], 41.2 µM. Besides, the GI50 in assay [7] is 40.8 µM. Also, the TGI is greater than 100 µM in assay [1]; greater than 100 µM in assay [2]; greater than 100 µM in assay [3]; greater than 100 µM in assay [4]; 48.8 µM in assay [5]; greater than 100 µM in assay [6]. The compound also registered a TGI in assay [7] greater than 100 µM.
Consider `O=C1c2c(O)cc(O)cc2OC(c2ccc(O)cc2O)C1O` (centres undefined), for which the TGI in assay [1], in assay [2], in assay [3], in assay [4], in assay [8] and in assay [7] was greater than 100 µM throughout. Also, the GI50 in assay [4] and in assay [8] was greater than 100 µM in each case.
For `CC(=O)[O-].O=C([CH-]C(=O)c1ccccc1)c1ccccc1.O=C([CH-]C(=O)c1ccccc1)c1ccccc1.[Y+3]`, the GI50 in assay [2] was 3.59 µM; in assay [3], 2.69 µM; in assay [4], 2.31 µM; in assay [5], 2.91 µM; in assay [8] it was 9.8 µM; in assay [7], 2.2 µM. The TGI in assay [2] worked out at 17.8 µM; in assay [3], 18.4 µM; in assay [4], 13.4 µM; in assay [5], 32.3 µM; in assay [8], 31.7 µM; in assay [7], 11.1 µM.
For the compound `COc1ccc(-c2c(-c3cc(OC)c4c(c3)OCO4)noc2N)cc1`, the GI50 was 0.0436 µM in assay [1]; 1.74 µM in assay [2]; 0.0339 µM in assay [3]; 0.0345 µM in assay [4]; 0.0723 µM in assay [5]; 0.0329 µM in assay [7]. Further, the TGI in assay [1] is 60.1 µM; in assay [2], greater than 71.3 µM; in assay [3], 10.9 µM; in assay [4] it was 37.1 µM; in assay [5], 17.5 µM; in assay [7] it was 20.9 µM.
Regarding `CCOC(=O)Nc1ccc(-c2nc(-c3cccc(OC)c3)c(-c3ccnc(Br)c3)[nH]2)cc1`, the GI50 in assay [1] is 2.52 µM; in assay [2], 2.45 µM; in assay [3], 2.79 µM; in assay [5], 2.21 µM; in assay [8] it was 2.68 µM; in assay [6] it was 2.35 µM. In assay [7], the GI50 is 2 µM. The TGI in assay [1] is 8.9 µM; in assay [2], 8.8 µM; in assay [3], 8.41 µM; in assay [5] it was greater than 100 µM; in assay [8], 7.9 µM; in assay [6] it was 7.73 µM. The compound also showed a TGI in assay [7] of 4.75 µM.
Turning to `CC(=O)OCC1O[C@@H]([S-])C(OC(C)=O)[C@H](OC(C)=O)[C@@H]1OC(C)=O.[Au+].c1ccc(CN2[CH-]N(Cc3ccccc3)C(c3ccccc3)=C2c2ccccc2)cc1`, the GI50 in assay [1] was 1.83 µM; in assay [5] it was 3.06 µM; in assay [8] it was 1.84 µM; in assay [6], 5.21 µM. In addition, the TGI in assay [1] is 3.7 µM; in assay [5] it was 9.47 µM; in assay [8], 4.05 µM; in assay [6], greater than 100 µM.
With `CNCCCNc1nc2ccccc2c2c(=O)c3cc(Cl)ccc3sc12`, the GI50 in assay [1] was 1.52 µM; in assay [3], 1.61 µM; in assay [4], 1.13 µM; in assay [8], 1.8 µM; in assay [7], 1.61 µM. Moreover, the TGI in assay [1] is 3.02 µM; in assay [3] it was 3.06 µM; in assay [4], 2.44 µM; in assay [8] it was 3.31 µM; in assay [7], 3.18 µM.
